Here are results for three molecules from PMC11642486 (International Journal of Molecular Sciences, 2024).

Structures can show the parent of a compound that is named as a salt. Where two headings read alike, the source gives them in different places.

Assay [1] concerns LPS-activated microglia cells. Kind of assay: RNA-sequencing of LPS-activated microglia cells treated with drug. It is filed as cell-based, mouse. The note with it: 30 µM DMF. How it is done: Microglia cells were activated with LPS and treated with the same drug concentrations at the same timepoints. Each experiment was repeated three times. RNA was extracted using the Maxwell® 16 LEV simplyRNA Cells Kit and the robotic platform Maxwell® 16 (both from Promega Biotech Ibérica) following the manufacturer’s instructions. RNA-sequencing was performed as previously described using the NovaSeq 6000 Sequencing System (Illumina, San Diego, CA, USA) by pair-end (150 x 2) and at a sequencing depth of 20 million reads per sample [60]. FastQC v0.12.1 and Cutadapt v4.4 were used for quality control of the raw reads and removal of the adapter sequences, respectively. Trimmomatic v0.39 was employed to further select trimmed reads larger than 20 nucleotides and with a sequencing quality score greater than 30 [62]. Reads were aligned with HISAT2 v2.2.1 to the mouse or rat genome assemblies GRCm39 and mRatBN7.2, respectively. Mapped reads were annotated using Ensembl gene annotation v110 for the mouse genome and v111 for the rat genome and counts quantified using HTSeq v2.0.3 [63]. Gene counts were analyzed using principal components with custom R scripts (R version 4.3.1). DESeq2 v1.40.2 was used for differential expression analysis.

For another assay, the system named is Nrf2. The experiment in a line: Nrf2 nuclear translocation by immunofluorescence in neurons. It is filed as cell-based, Wistar rats. The note with it: for lowest concentration inducing nuclear translocation (activation) of Nrf2: significant vs vehicle. How it is done: (§1) Primary hippocampal neurons were obtained from Wistar rats on embryonic day 18. Briefly, embryos were removed from the womb under sterile conditions and decapitated to dissect the brains. Hippocampi were isolated at 4 °C in Hank’s balanced salt solution (HBSS) without calcium and magnesium, supplemented with 10 mM HEPES buffered saline and 100 U/mL of penicillin-streptomycin. The hippocampi were mechanically disaggregated using fire-polished pipettes and plated for 2–4 h in neuronal plating medium composed of minimum essential medium (MEM) enriched with 0.6% D-glucose and 10% horse serum. Neuronal plating medium was replaced by neurobasal medium supplemented with 1X B-27 and 2 mM L-glutamine. Neurons were grown for 7 days prior to the experiments. For the microglial cells, we used the BV-2 immortalized murine cell line. Microglial cells were cultured in Dulbecco’s modified Eagle medium (DMEM) with 4.5 g/L D-glucose, 2 mM L-glutamine, 100 U/mL of penicillin-streptomycin, and 10% heat-inactivated fetal bovine serum. Cells were maintained at 37 °C in a humidified incubator with 5% CO2. All culture media were purchased from Thermo Fisher Scientific (Waltham, MA, USA).
For the immunofluorescence experiments, neurons and microglia were directly seeded on glass coverslips previously treated with 1 mg/mL of poly-L-lysine. […] After the drug treatments, the cells were fixed on ice with 4% paraformaldehyde for 25 min and then permeabilized and blocked using 0.1% Triton X-100 (10 min) and 5% BSA (30 min), respectively. Cells were then incubated overnight with the primary antibodies and 1% BSA at 4 °C. The primary antibodies anti-Nrf2 (ab1375550) and anti-NF-kB p65 (ab16502) (both from Abcam, Cambridge, United Kingdom) were used at 1:200. After washing with PBS, cells were incubated with the fluorophore-conjugated secondary antibody anti-Rabbit IgG Alexa Fluor 488 (Thermo Fisher Scientific) at 1:500 for 1 h at room temperature. Cells were counterstained with the TO-PRO fluorescent dye (Thermo Fisher Scientific) to visualize the cell nuclei. Images were captured using the confocal microscope Leica TCS SP5 (Leica Microsystems, Wetzlar, Germany). For each experimental condition, five random fields were captured and analyzed using ImageJ software (National Institutes of Health, Maryland, DC, USA). Activation of Nrf2 or NF-kB was defined as nuclear translocation, measured by the increase in the mean fluorescence intensity (MFI) in the nucleus. Each experiment was repeated three times.

The test system of assay [2] is BV-2 immortalized murine cell line (microglia). The experiment in a line: Cell viability assay (CellTiter-Glo) in microglia. It is filed as cell-based. The protocol:
Cell viability was measured at 24, 48, and 72 h of treatment with different drug concentration ranges. For each cellular type, we determined the half-maximal inhibitory concentration (IC50) of each drug. In neurons, as a non-proliferative primary culture, the IC50 was defined as the drug concentration able to diminish cell viability by 50% with respect to the vehicle-treated control. In microglia, as a proliferative cell line, the IC50 was defined as the drug concentration able of inhibiting by 50% cellular proliferation with respect to the vehicle-treated control.
as §1
(§2) Neurons and microglia were both seeded at a density of 10,000 cells/well in 96-well plates previously treated with 0.1 mg/mL of poly-L-lysine (Sigma-Aldrich). […] Cell viability was determined at 24, 48, and 72 h. The percentage of viable cells was quantified using the CellTiter-Glo® Luminescent Cell Viability Assay (Promega Biotech Ibérica, Madrid, Spain) following the instructions by the manufacturer. The […] of the cell culture media alone was subtracted as the background from all readings. Cell viability in the drug-treated cells was normalized to their respective vehicle controls. Experiments were repeated three times, each condition in triplicate.
(§3) Statistical analysis was performed using Prism 8 software (GraphPad, Boston, MA, USA). For the cell viability assays, a linear regression analysis was made with logarithmic transformation of the drug concentrations in the X-axis. The coefficient of determination (R²) was calculated as a measurement of the adjustment of the data to the regression model. The Mann–Whitney test was used to compare two different conditions. The Kruskal–Wallis test was used to compare the different concentrations of each drug against the vehicle or LPS. Statistical significance was established at p < 0.05.

Assay [3] concerns Primary hippocampal neurons. Kind of assay: Cell viability assay (CellTiter-Glo) in neurons. The note with it: for IC50: concentration diminishing cell viability by 50% vs vehicle. It is filed as cell-based, Wistar rats. The protocol:
Cell viability was measured at 24, 48, and 72 h of treatment with different drug concentration ranges. For each cellular type, we determined the half-maximal inhibitory concentration (IC50) of each drug.
as §1, §2, §3

The mark [4] stands for this setting: Mus musculus, Microglia, 24 h, microglia, 24 h, concentration inhibiting cellular proliferation by 50% vs vehicle, read-out: IC50 (cell viability).
[5] abbreviates: Mus musculus, Microglia, 48 h, microglia, 48 h, concentration inhibiting cellular proliferation by 50% vs vehicle, read-out: IC50 (cell viability).
[6] abbreviates: Mus musculus, Microglia, 72 h, microglia, 72 h, concentration inhibiting cellular proliferation by 50% vs vehicle, read-out: IC50 (cell viability).
Where [7] appears, read: Rattus norvegicus, Hippocampal neuron, 24 h, neurons, 24 h, read-out: IC50 (cell viability).
The mark [8] stands for this setting: Rattus norvegicus, Hippocampal neuron, 48 h, neurons, 48 h, read-out: IC50 (cell viability).
Setting [9] is: Rattus norvegicus, Hippocampal neuron, 72 h, neurons, 72 h, read-out: IC50 (cell viability).
The mark [10] stands for this setting: neurons, 24 h, read-out: IC50 (cell viability).
Setting [11] is: neurons, 72 h, read-out: IC50 (cell viability).

Regarding `C=C(C)[C@@H]1CCC(C)=C[C@H]1c1c(O)cc(CCCCC)cc1O` [CBD, cannabidiol], the “number of DEGs vs cells treated with LPS alone” value (shortened to “number of DEGs vs cells treated”) in assay [1] (4 h, 30 µM MMF, 6 µM CBD) is reported as 2; in assay [1] (24 h, 30 µM MMF, 6 µM CBD) it was 2610. In assay [1] (24 h, 6 µM CBD), the “number of downregulated DEGs vs LPS alone” value was found to be 1265. Also, in assay [1] (24 h, 6 µM CBD), the “number of upregulated DEGs vs LPS alone” value was 1345. The “Nrf2 nuclear protein levels, fold increase vs vehicle” value with Nrf2 (4 h, 5 µM) was 4 fold; in the assay on Nrf2 (4 h, 6 µM), 10 fold; in the assay with Nrf2 (4 h, 7 µM), 10 fold; in the assay with Nrf2 (4 h, 8 µM) it was 4 fold; in the assay on Nrf2 (4 h, 10 µM) it was 4 fold. In addition, the “magnitude (peak) of Nrf2 activation, fold change of mean nuclear fluorescence intensity vs vehicle” value in the assay with Nrf2 (4 h treatment) is listed as 10 fold. For the same molecule, the “lowest concentration inducing nuclear translocation (activation) of Nrf2” value in the assay with Nrf2 (4 h treatment) stood at 5 µM. Also, the half-maximal inhibitory concentration (IC50) was 12 µM in assay [2] (Mus musculus, Microglia, 24 h, read-out: IC50 (cell viability), microglia, 24 h, concentration inhibiting cellular proliferation by 50% vs vehicle); 12.2 µM in assay [2] (Mus musculus, Microglia, 48 h, read-out: IC50 (cell viability), microglia, 48 h, concentration inhibiting cellular proliferation by 50% vs vehicle); 11.8 µM in assay [2] (Mus musculus, Microglia, 72 h, read-out: IC50 (cell viability), microglia, 72 h, concentration inhibiting cellular proliferation by 50% vs vehicle); about 12 µM in assay [2] (Mus musculus, Microglia, 72 h, read-out: IC50 (cell viability), microglia, all of the studied timepoints (24, 48, 72 h)); 15.1 µM in assay [3] (Rattus norvegicus, Hippocampal neuron, 24 h, read-out: IC50 (cell viability), neurons, 24 h); 13.6 µM in assay [3] (Rattus norvegicus, Hippocampal neuron, 48 h, read-out: IC50 (cell viability), neurons, 48 h). In addition, the IC50 was found to be 13 µM in assay [3] (Rattus norvegicus, Hippocampal neuron, 72 h, read-out: IC50 (cell viability), neurons, 72 h); 15 µM in assay [3] (read-out: IC50 (cell viability), neurons, 24 h); 13 µM in assay [3] (read-out: IC50 (cell viability), neurons, 72 h). For the same molecule, the “decrease in cell viability” value in assay [3] (neurons, 10 µM) is “around 20%”.
Turning to `COC(=O)/C=C/C(=O)OC` [DMF, Dimethyl fumarate], the “number of downregulated DEGs vs LPS alone” value is listed as 340 in assay [1] (4 h, 30 µM MMF) and 146 in assay [1] (24 h, 6 µM CBD). The “number of upregulated DEGs vs LPS alone” value in assay [1] (4 h, 30 µM MMF) is given as 202; in assay [1] (24 h, 6 µM CBD), 230. Besides, the “number of DEGs vs cells treated” value in assay [1] (4 h, 30 µM MMF, 6 µM CBD) is 542; in assay [1] (24 h, 30 µM MMF, 6 µM CBD), 376. For the same molecule, the “number of DEGs with strong downregulation” value in assay [1] (24 h) is 67. Also, the “number of DEGs with strong upregulation” value in assay [1] (24 h) came out at 128. In the assay with Nrf2 (4 h treatment), the “lowest concentration inducing nuclear translocation (activation) of Nrf2” value is recorded as 30 µM. Also, the 50% inhibitory concentration (IC50) stood at 37.2 µM in assay [2] (setting [4]); 40.8 µM in assay [2] (setting [5]); 73.2 µM in assay [2] (setting [6]); 37 µM in assay [2] (microglia, 24 h, concentration inhibiting cellular proliferation by 50% vs vehicle, read-out: IC50 (cell viability)); 73 µM in assay [2] (microglia, 72 h, concentration inhibiting cellular proliferation by 50% vs vehicle, read-out: IC50 (cell viability)); 103 µM in assay [3] (setting [7]). For the same molecule, the IC50 was 54.5 µM in assay [3] (setting [8]), 36.5 µM in assay [3] (setting [9]), about 100 µM in assay [3] (setting [10]) and 36 µM in assay [3] (setting [11]). The “decrease in cell viability” value in assay [3] (neurons, 30 µM) is “around 20%”.
On to `COC(=O)/C=C/C(=O)O` [MMF, monomethyl fumarate], for which, in assay [1] (4 h, 30 µM MMF), the “number of downregulated DEGs vs LPS alone” value is reported as “three”. Besides, the “number of upregulated DEGs vs LPS alone” value in assay [1] (4 h, 30 µM MMF) is listed as “five”. Also, the “number of DEGs vs cells treated” value in assay [1] (4 h, 30 µM MMF, 6 µM CBD) is on record as “eight”; in assay [1] (24 h, 30 µM MMF, 6 µM CBD), “could not detect any transcriptomic changes”. Further, the “Nrf2 activation (nuclear translocation), result in words” value in the assay with Nrf2 (4 h, same concentrations as DMF (up to 30 µM)) is reported as “did not observe the nuclear translocation of Nrf2”. In addition, the IC50 in assay [2] (setting [4]) is 49.5 µM; in assay [2] (setting [5]) it was 41.7 µM; in assay [2] (setting [6]) it was 56.6 µM; in assay [2] (Mus musculus, Microglia, 72 h, microglia, all of the studied timepoints (24, 48, 72 h), read-out: IC50 (cell viability)), about 50 µM; in assay [3] (setting [7]), 67.8 µM; in assay [3] (setting [8]), 42.5 µM. For the same molecule, the IC50 is 55.6 µM in assay [3] (setting [9]), about 65 µM in assay [3] (setting [10]) and 55 µM in assay [3] (setting [11]).
